Experimental data as given in ChEMBL document CHEMBL5620390, “A novel multifunctional mitochondrion-targeting NIR fluorophore probe inhibits tumour proliferation and metastasis through the PPARγ/ROS/β-catenin pathway” (Eur J Med Chem, 2023).
The source made the active and inactive calls. No cut-off for these calls is given here.

Experiments:
B16-F10 [1] = assay: Induction of ROS generation in mouse B16-F10 cells assessed as reduction in PPARgamma expression level at 1.25 uM incubated for 24 hrs; type: functional, cell-based
A-375 [2] = assay: Inhibition of Wnt/beta-catenin signaling in human A-375 cells assessed as reduction in beta-catenin expression at 1.25 uM preincubated with rosiglitazone for 24 hrs followed by compound addition and measured after 24 hrs in presence of H2O2; type: cell-based
B16-F10 [3] = assay: Inhibition of cell migration in mouse B16-F10 cells after 24 hrs by transwell assay; type: functional, cell-based; details: dose 0.31-1.25 µM
[4] = Drug uptake in mouse B16-F10 cells implanted in C57BL/6J mouse assessed as fluorescence aggregation in tumor at 3 mg/kg, iv measured after 3 to 6 hrs; type: ADME, organism-based; details: in vivo, time 3-6 hrs
B16-F10 [5] = assay: Antitumor activity against mouse B16-F10 cells inoculated in mouse assessed as increase in E-cadherin expression at 2 mg/kg, ip administered every other day and measured on day 18 by immunohistochemistry analysis; type: functional, organism-based; details: time 18.0 day
B16-F10 [6] = assay: Inhibition of Wnt/beta-catenin signaling in mouse B16-F10 cells assessed as reduction in beta-catenin expression at 1.25 uM incubated for 24 hrs; type: cell-based
B16-F10 [7] = assay: Induction of mitochondrial damage in mouse B16-F10 cells assessed as increase in ROS production at 2.5 uM after 5 to 60 mins by DCFH-DA staining based flow cytometry analysis; type: functional, cell-based; details: time 5-60 min
A549 = assay: Antiproliferative activity against human A549 cells assessed as inhibition of cell growth at 0.31 uM after 72 hrs by MTT assay; type: functional; design: scale not given: the % may be the effect or the level left
B16-F10 [8] = assay: Inhibition of Wnt/beta-catenin signaling in mouse B16-F10 cells assessed as reduction in TCF4 expression at 1.25 uM preincubated with rosiglitazone for 24 hrs followed by compound addition and measured after 24 hrs in presence of H2O2; type: cell-based
[9] = Toxicity in C57BL/6J mouse inoculated with mouse B16-F10 cells assessed as effect on heart morphology at 2 mg/kg, ip administered every other day for 22 days by H and E staining based assay; type: organism-based; details: in vivo, 528 h, time 22 day
[10] = Toxicity in C57BL/6J mouse inoculated with mouse B16-F10 cells assessed as effect on lung morphology at 2 mg/kg, ip administered every other day for 22 days by H and E staining based assay; type: organism-based; details: in vivo, 528 h, time 22 day
A-375 [11] = assay: Inhibition of ROS generation in human A-375 cells at 1.25 uM preincubated with rosiglitazone for 2 hrs followed by wash out and compound addition for 1 hr by DCFH-DA staining based inverted fluorescence microscopic analysis; type: functional; design: scale not given: the % may be the effect or the level left
A-375 [12] = assay: Inhibition of cell metastasis in human A-375 cells assessed as reduction in MMP9 protein level at 0.31 to 1.25 uM after 24 hrs by Western blotting analysis; type: functional, cell-based; details: dose 0.31-1.25 µM
[13] = Toxicity in C57BL/6J mouse inoculated with mouse B16-F10 cells assessed as effect on spleen morphology at 2 mg/kg, ip administered every other day for 22 days by H and E staining based assay; type: organism-based; details: in vivo, 528 h, time 22 day
[14] = Toxicity in mouse inoculated with mouse B16-F10 cells assessed as change in body weight at 2 mg/kg, ip administered every other day and measured on day 18; type: organism-based; details: in vivo, 432 h, time 18 day
[15] = Renal toxicity in C57BL/6J mouse inoculated with mouse B16-F10 cells assessed as change in CREA level at 2 mg/kg, ip administered every other day for 22 days; type: organism-based; details: in vivo, 528 h, time 22 day
B16-F10 [16] = assay: Induction of cell cycle arrest in mouse B16-F10 cells assessed as reduction in Cdk4 protein level at 0.31 to 1.25 uM after 24 hrs by Western blotting analysis; type: functional, cell-based; details: dose 0.31-1.25 µM
B16-F10 [17] = assay: Inhibition of ROS generation in mouse B16-F10 cells preincubated with rosiglitazone for 2 hrs followed by wash out and compound addition for 1 hr by DCFH-DA staining based inverted fluorescence microscopic analysis; type: functional, cell-based
B16-F10 [18] = assay: Induction of mitochondrial damage in mouse B16-F10 cells assessed as mitochondrial swelling at 2.5 uM incubated for 24 hrs by TEM analysis; type: functional, cell-based
B16-F10 [19] = assay: Antiproliferative activity against mouse B16-F10 cells assessed as inhibition of cell growth after 24 to 72 hrs by MTT assay; type: functional, cell-based
A-375 [20] = assay: Induction of ROS generation in human A-375 cells assessed as reduction in PPARgamma expression level at 1.25 uM preincubated with rosiglitazone for 24 hrs followed by compound addition for 24 hrs; type: functional, cell-based
B16-F10 [21] = assay: Induction of mitochondrial damage in mouse B16-F10 cells assessed as increase in ROS production measured upto 120 mins by DCFH-DA staining based flow cytometry analysis; type: functional, cell-based; details: dose 0.16-2.5 µM
A-375 [22] = assay: Inhibition of tumor metastasis in human A-375 cells assessed as reduction in wound healing after 24 hrs; type: functional, cell-based; details: dose 0.08-1.25 µM
B16-F10 [23] = assay: Induction of ROS generation in mouse B16-F10 cells assessed as reduction in SOD2 expression level at 0.31 to 1.25 uM incubated for 24 hrs; type: functional, cell-based; details: dose 0.31-1.25 µM
[24] = Toxicity in C57BL/6J mouse inoculated with mouse B16-F10 cells assessed as reduction in body weight at 2 mg/kg, ip administered every other day and measured after 16 days; type: organism-based; details: in vivo, 384 h, time 16 day
[25] = Cytotoxicity against human A-375 cells assessed as cell viability at 40 uM incubated for 24 hrs by MTT assay; type: toxicity, cell-based; details: read-out: Activity
B16-F10 [26] = assay: Induction of ROS generation in mouse B16-F10 cells assessed as reduction in PPARgamma expression level at 1.25 uM preincubated with rosiglitazone for 24 hrs followed by compound addition for 24 hrs; type: functional, cell-based
[27] = Toxicity in C57BL/6J mouse inoculated with mouse B16-F10 cells assessed as effect on kidney morphology at 2 mg/kg, ip administered every other day for 22 days by H and E staining based assay; type: organism-based; details: in vivo, 528 h, time 22 day
B16-F10 [28] = assay: Induction of mitochondrial damage in mouse B16-F10 cells assessed as change in mitochondrial morphology at 2.5 uM incubated for 24 hrs by TEM analysis; type: functional, cell-based
[29] = Drug uptake in human HeLa cells assessed as fluorescence intensity at 2.5 uM incubated for 1 hr by confocal laser scanning microscopic analysis; type: ADME, cell-based
B16-F10 [30] = assay: Induction of ROS generation in mouse B16-F10 cells assessed as reduction in GPX1 expression level at 1.25 uM preincubated with rosiglitazone for 24 hrs followed by compound addition for 24 hrs; type: functional, cell-based
A-375 [31] = assay: Induction of ROS generation in human A-375 cells assessed as reduction in GPX1 expression level at 1.25 uM preincubated with rosiglitazone for 24 hrs followed by compound addition for 24 hrs; type: functional, cell-based
[32] = Toxicity in C57BL/6J mouse inoculated with mouse B16-F10 cells assessed as effect on liver morphology at 2 mg/kg, ip administered every other day for 22 days by H and E staining based assay; type: organism-based; details: in vivo, 528 h, time 22 day
[33] = Drug uptake in mouse B16-F10 cells assessed as fluorescence intensity at 2.5 uM incubated for 1 hr by confocal laser scanning microscopic analysis; type: ADME, cell-based; details: b16-f10, 1 h
B16-F10 [34] = assay: Inhibition of colony formation in mouse B16-F10 cells at less than 0.63 uM by crystal violet staining based assay; type: functional, cell-based

With `CC[N+]1=C(/C=C/C2=C(Cl)C(=C/C=C3\N(CCCCCC(=O)O/C(=N/C4CCCCC4)NC4CCCCC4)c4ccccc4C3(C)C)/CCC2)C(C)(C)c2ccccc21.[Br-]` the Activity (B16-F10 [1]) was “Active”, the inhibition (A-375 [2]) was “inactive” and the inhibition (B16-F10 [3]) was “Dose-Dependent Effect”. The Drug uptake [4] was “Active”, the Activity (B16-F10 [5]) was “Active” and the inhibition (B16-F10 [6]) was “Active”. For the same molecule, the Activity (B16-F10 [7]) was “Active”, the Activity (A549) was 70% and the Activity (B16-F10 [8]) was “inactive”. The Activity [9] was “Non-Toxic”, the Activity [10] was “Non-Toxic” and the Activity (A-375 [11]) was >50%. The inhibition (A-375 [12]) was “Active”, the Activity [13] was “Non-Toxic” and the Activity [14] was “Non-Toxic”. The Activity [15] was “Non-Toxic”, the Activity (B16-F10 [16]) was “Active” and the Activity (B16-F10 [17]) was “Dose-Dependent Effect”. For the same molecule, the Activity (B16-F10 [18]) was “Active”, the IC50 (B16-F10 [19]) was 410 nM and the Activity (B16-F10 [19]; time 24-72 hrs) was “Dose-Dependent Effect”. The Activity (A-375 [20]) was “inactive”, the Activity (B16-F10 [21]) was “Dose-Dependent Effect” and the inhibition (A-375 [22]) was “Dose-Dependent Effect”. For the same molecule, the Activity (B16-F10 [23]) was “Active”, the Activity [24] was “Non-Toxic” and the viability at 24 h, 40 µM [25] was 90%. For the same molecule, the Activity (B16-F10 [26]) was “inactive”, the Activity [27] was “Non-Toxic” and the Activity (B16-F10 [28]) was “Active”. The Drug uptake [29] was “Active”, the Activity (B16-F10 [30]) was “inactive” and the Activity (A-375 [31]) was “inactive”. For the same molecule, the Activity [32] was “Non-Toxic”, the Drug uptake [33] was “Active” and the inhibition (B16-F10 [34]) was “Active”.
